Data published in publication PMC9412875, “^64Cu-DOTHA2-PSMA, a Novel PSMA PET Radiotracer for Prostate Cancer with a Long Imaging Time Window” (Pharmaceuticals, 2022).
“Also recorded” adds a separate entry of the source.

Experiments:
[1] = In vivo stability (blood, urine, liver) after injection; design: species or system balb/c mice
Protocol: For metabolite analysis, three balb/c mice were injected with a bolus of 32 MBq of ^64Cu-DOTHA2-PSMA in 0.3 mL saline by tail vein (real IA: 26.4–39.0 MBq). Blood was collected at 1 h p.i. (0.01–0.1 mL) in heparin-coated tubes and then centrifuged at 10,000 rpm for 10 min. Subsequently, the pellet and supernatant were separated, and the relative activity was determined. Radio-TLC was performed to assess the stability of the radiolabeled compound in the blood and in plasma. Two balb/c mice were injected with 45 MBq (real IA: 44.7–45.5 MBq). Urine was collected at 1 h p.i. and analyzed by UPLC. Two balb/c mice were injected with 59 MBq and then euthanized and dissected at 2 h p.i. to harvest the liver (real IA: 58.9–59.3 MBq). The livers were promptly washed and put on ice. They were homogenized with an ice-cold piston with 1 mL of water, extracted, centrifuged (14,000 rpm; 3 min), and mixed with 1 mL of acetonitrile before 4 further cycles of centrifugation and the collection of supernatants. All the pellets were mixed with 1 mL of 10% TFA and centrifuged, and the final supernatant was analyzed by Radio-TLC. The activity was measured in all the supernatants.

[2] = Balb/c mice biodistribution; type: in vivo
Protocol: ^64Cu-DOTHA2-PSMA biodistribution was assessed in balb/c mice (n = 30) by harvesting blood and organs at 1 h, 2 h, 4 h, 24 h, and 48 h p.i. to measure tissue radioactivity and weight. Results were reported as the %IA/g of tissue and compared with the radiotracer used for clinical imaging in our facility, ^68Ga-PSMA-617.
Balb/c mice (n = 30) were injected with a bolus of ^64Cu-DOTHA2-PSMA by the tail vein (in 0.3 mL of saline: 3 MBq for 1 h, 2 h, and 4 h p.i., 7.5 MBq for 24 h p.i. and 21 MBq for 48 h p.i.). Injected activity had to be increased for later time points to ensure reliable detection and reliability in organs with a low uptake, e.g., the brain. At all timepoints, blood was collected using a heparin-coated syringe by femoral vein puncture and mice were then euthanized and dissected. Harvested tissues were rinsed, blotted dry, and then weighted and counted in gamma counter. The results are reported as the %IA per gram of tissue. The biodistribution results were compared with the ^68Ga-PSMA-617 results obtained by our team at 1 h and 2 h p.i.

LNCaP cells = assay: Cellular efflux assay; type: cell-based, human; conditions: 1h incubation, efflux time 3 h
[3] = in mice, 1 h p.i., after 10% TFA

## CN([O-])C(=O)CN1CCN(CC(=O)NCC2CCC(C(=O)NC(Cc3ccc4ccccc4c3)C(=O)NCCCCC(NC(=O)NC(CCC(=O)O)C(=O)O)C(=O)O)CC2)CCN(CC(=O)N(C)[O-])CCN(CC(=O)N(C)O)CC1.[64Cu+2] (centres unmarked) [^64Cu-DOTHA2-PSMA]
[1]; balb/c mice, 2 h p.i., radio-TLC
  64Cu metabolite observed in the liver: 25%
[1]; balb/c mice, urine 1 h p.i., UPLC
  tracer form found in urine: intact ^64Cu tracer was found in urine; also recorded: no metabolite was observed in urine
[1]; in mice, 1 h p.i.
  64Cu and 64Cu-DOTHA2-PSMA Bound to Plasma Proteins: 48%
  64Cu dissociation in combined supernatant and plasma proteins: 4.58%
[1]; [3]
  64Cu released from Proteins: 1.98%
  64Cu-DOTHA2-PSMA Released from Proteins: 31%
[1]; in mice, blood 1 h p.i., % of total plasma signal
  64Cu in the Supernatant: 2.60%
[1]; mice, 1 h p.i.
  free 64Cu in blood (peak in plasma supernatant, radio-TLC): 5%
[1]; mice, 2 h p.i., radio-TLC
  free 64Cu in the liver: no free ^64Cu was observed; also recorded: free ^64Cu was not seen in liver
[2]; 2 h p.i.
  kidney uptake difference to 68Ga-PSMA-617 (lower): 23.3%
  liver uptake: 29.9 ± 5.0 % IA/g
[2]; 4 h p.i.
  liver uptake (peak): 30.2 ± 4.2 % IA/g
[2]; up to 48 h p.i.
  uptake in the kidneys (highest over time points): at most 15.8 ± 7.0 % IA/g
LNCaP cells
  Retained activity normalized to time 0: 76.53%
